The target of assay [1] is Histone deacetylase 3/Nuclear receptor corepressor 2 (HDAC3/NCoR2) (Homo sapiens, UniProt O15379). Kind of assay: Inhibition of full length HDAC3/NCoR2 assessed as 7-amino-4-methylcoumarin release from fluorophore conjugated substrate after 5 mins by fluorescence assay. Format: protein-complex assay.
In another assay the target is Histone deacetylase 2 (Homo sapiens, UniProt Q92769). Kind of assay: Inhibition of full length HDAC2 assessed as 7-amino-4-methylcoumarin release from fluorophore conjugated substrate after 5 mins by fluorescence assay.
In another assay the target is T1, Histone deacetylase 8 (Homo sapiens, UniProt Q9BY41).
T1 sequence (Q9BY41 whole entry): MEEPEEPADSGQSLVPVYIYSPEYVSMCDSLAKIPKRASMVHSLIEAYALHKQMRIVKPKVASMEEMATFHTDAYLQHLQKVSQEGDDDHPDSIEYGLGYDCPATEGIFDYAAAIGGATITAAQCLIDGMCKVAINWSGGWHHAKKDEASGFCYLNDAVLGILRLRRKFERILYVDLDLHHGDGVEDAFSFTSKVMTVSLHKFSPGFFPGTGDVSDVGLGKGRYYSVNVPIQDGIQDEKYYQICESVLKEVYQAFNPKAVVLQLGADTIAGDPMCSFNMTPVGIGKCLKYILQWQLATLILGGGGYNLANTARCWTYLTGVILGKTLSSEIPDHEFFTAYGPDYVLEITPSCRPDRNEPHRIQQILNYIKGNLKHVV
In words: Inhibition of full length HDAC8 assessed as 7-amino-4-methylcoumarin release from fluorophore conjugated substrate after 5 mins by fluorescence assay.

Sequence of Histone deacetylase 2 (Q92769 whole entry): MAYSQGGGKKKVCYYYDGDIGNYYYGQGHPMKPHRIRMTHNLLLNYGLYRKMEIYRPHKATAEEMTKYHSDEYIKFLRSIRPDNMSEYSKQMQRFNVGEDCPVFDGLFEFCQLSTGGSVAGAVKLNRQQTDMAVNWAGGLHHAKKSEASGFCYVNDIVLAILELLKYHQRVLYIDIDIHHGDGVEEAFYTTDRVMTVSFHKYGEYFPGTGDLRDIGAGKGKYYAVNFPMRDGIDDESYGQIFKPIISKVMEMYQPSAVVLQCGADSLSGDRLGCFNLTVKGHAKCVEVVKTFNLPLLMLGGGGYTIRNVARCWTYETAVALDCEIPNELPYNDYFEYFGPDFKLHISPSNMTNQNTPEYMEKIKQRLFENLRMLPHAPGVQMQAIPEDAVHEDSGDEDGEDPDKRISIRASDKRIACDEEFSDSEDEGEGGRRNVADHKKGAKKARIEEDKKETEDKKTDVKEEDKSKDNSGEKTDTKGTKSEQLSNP
Sequence of Histone deacetylase 3/Nuclear receptor corepressor 2 (HDAC3/NCoR2) (O15379 whole entry): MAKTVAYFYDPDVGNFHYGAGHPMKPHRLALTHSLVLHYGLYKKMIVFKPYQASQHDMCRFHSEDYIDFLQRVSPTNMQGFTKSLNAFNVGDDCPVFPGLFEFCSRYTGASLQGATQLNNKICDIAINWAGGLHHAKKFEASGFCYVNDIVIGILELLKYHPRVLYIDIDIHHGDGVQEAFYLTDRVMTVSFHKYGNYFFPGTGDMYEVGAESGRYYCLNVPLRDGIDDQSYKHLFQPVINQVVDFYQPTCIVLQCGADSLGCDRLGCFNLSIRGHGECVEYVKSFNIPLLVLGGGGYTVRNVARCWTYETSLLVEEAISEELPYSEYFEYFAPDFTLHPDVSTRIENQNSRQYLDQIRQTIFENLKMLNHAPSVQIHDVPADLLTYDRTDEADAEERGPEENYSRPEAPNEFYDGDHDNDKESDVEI
Sequence of Histone deacetylase 3/Nuclear receptor corepressor 2 (HDAC3/NCoR2) (Q9Y618 whole entry, further chain): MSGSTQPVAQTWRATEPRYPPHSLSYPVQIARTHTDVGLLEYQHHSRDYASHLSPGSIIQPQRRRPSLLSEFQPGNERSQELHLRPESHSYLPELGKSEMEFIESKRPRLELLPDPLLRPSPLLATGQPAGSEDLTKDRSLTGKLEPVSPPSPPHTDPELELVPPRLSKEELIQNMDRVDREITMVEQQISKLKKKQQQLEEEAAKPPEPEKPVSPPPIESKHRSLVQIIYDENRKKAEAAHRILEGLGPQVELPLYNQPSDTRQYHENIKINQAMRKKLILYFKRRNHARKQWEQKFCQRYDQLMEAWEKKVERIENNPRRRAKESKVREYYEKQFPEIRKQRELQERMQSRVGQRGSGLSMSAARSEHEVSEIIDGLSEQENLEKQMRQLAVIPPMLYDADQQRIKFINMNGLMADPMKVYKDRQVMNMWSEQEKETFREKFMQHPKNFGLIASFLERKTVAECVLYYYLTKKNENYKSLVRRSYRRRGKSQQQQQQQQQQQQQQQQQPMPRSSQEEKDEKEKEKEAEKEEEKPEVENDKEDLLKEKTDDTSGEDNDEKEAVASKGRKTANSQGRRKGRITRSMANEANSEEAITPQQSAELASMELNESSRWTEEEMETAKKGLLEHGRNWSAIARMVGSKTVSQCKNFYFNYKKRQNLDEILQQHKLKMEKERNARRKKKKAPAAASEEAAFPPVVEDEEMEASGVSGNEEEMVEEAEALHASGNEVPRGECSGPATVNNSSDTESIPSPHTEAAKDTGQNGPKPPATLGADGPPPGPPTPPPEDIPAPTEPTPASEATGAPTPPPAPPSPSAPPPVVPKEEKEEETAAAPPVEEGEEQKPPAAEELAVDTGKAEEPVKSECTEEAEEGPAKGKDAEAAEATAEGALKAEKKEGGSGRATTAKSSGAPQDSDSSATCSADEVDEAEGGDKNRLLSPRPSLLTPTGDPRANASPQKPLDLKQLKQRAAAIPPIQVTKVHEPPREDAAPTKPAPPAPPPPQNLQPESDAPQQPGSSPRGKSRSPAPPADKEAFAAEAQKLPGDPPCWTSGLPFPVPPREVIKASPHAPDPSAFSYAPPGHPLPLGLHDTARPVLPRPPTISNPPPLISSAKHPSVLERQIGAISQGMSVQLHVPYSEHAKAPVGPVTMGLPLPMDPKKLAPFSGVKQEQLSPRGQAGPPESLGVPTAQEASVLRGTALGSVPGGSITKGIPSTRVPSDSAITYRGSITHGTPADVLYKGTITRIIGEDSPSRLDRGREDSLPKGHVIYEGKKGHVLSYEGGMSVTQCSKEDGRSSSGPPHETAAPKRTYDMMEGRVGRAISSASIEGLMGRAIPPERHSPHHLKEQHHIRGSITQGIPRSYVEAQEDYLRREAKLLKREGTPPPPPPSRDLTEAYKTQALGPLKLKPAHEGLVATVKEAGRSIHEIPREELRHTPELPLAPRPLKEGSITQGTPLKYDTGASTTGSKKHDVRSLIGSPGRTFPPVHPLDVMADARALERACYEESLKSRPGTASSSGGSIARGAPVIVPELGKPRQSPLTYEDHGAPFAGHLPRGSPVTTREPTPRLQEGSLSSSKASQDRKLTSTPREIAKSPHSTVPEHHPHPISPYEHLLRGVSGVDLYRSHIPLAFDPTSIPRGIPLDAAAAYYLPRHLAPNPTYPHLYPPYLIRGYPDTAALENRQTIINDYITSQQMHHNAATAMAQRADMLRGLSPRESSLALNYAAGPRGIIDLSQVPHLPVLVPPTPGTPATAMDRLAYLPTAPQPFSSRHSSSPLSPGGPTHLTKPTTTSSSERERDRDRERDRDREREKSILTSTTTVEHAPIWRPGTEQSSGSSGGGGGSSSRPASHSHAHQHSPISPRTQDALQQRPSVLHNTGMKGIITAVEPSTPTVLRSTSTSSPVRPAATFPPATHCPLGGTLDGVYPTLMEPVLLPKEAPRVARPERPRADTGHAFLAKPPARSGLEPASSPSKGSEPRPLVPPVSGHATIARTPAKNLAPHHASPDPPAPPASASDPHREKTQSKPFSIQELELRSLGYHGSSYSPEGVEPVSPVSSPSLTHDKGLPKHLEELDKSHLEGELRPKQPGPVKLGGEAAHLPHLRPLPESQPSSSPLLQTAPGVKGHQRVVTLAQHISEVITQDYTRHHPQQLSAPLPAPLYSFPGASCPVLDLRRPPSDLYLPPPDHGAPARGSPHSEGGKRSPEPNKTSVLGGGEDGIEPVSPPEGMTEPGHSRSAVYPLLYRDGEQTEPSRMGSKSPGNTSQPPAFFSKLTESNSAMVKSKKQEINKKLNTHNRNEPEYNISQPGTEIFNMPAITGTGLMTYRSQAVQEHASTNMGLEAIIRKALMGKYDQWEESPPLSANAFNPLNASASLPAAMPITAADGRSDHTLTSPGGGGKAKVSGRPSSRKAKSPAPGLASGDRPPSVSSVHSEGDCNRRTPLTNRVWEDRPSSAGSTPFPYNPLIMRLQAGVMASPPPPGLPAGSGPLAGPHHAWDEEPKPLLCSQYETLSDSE

For the molecule `O=C(NO)c1cccc(C(=O)N/N=C/c2ccccc2)c1`, the concentration for half-maximal inhibition (IC50) in assay [1] came to 18 µM; on Histone deacetylase 2, 20 µM; on Histone deacetylase 8, 0.052 µM.
`C#CCOc1ccc(/C=N/NC(=O)CCCCCCC(=O)NO)cc1`: the IC50 is 0.0031 µM in assay [1], 0.0021 µM at Histone deacetylase 2 and 0.29 µM on Histone deacetylase 8.
For `O=C1CC/C=C/CCC(=O)N(Cc2cccc(/C=N/NC(=O)c3cccc(C(=O)NO)c3)c2)C[C@H](c2ccccc2)O1` the same measures were 15 µM, 5 µM and 0.11 µM.
The like results for `O=C1CC/C=C/CCC(=O)N(Cc2cccc(/C=N/NC(=O)c3cccc(C(=O)NO)c3)c2)C[C@@H](c2ccccc2)O1` were, in that order, 15 µM, 3.6 µM and 0.023 µM.
On to `C#CCOc1ccc(/C=N/NC(=O)c2cccc(C(=O)NO)c2)cc1`, for which the IC50 came to 6.2 µM in assay [1], 6.3 µM on Histone deacetylase 2 and 0.029 µM at Histone deacetylase 8.

For orientation: IC50 means the concentration that gives 50% inhibition.
